# In US20240058311A1, “USE OF SMO INHIBITOR IN PREPARATION OF DRUG FOR PREVENTING, DELAYING OR A[…] STENOSIS OF ART[…]” (JINAN UNIVERSITY, priority 2022, published 2024):
# Assays:
# HUVECs [1] = test: Lactate dehydrogenase (LDH) assay in HUVECs under high glucose; assay type: cell-based, human; settings: HG, after intervention with Cyc (FIG. 6C)
# Protocol: HUVECs were inoculated in a 6-well plate (1×10^6 cells/well) and treated in different glucose conditions. After 48 hours of culture, the supernatant was collected, and the LDH activity was analyzed using an LDH cytotoxicity assay kit.
# HUVECs [2] = test: Apoptosis detection (AnnexinV-FITC/PI) in HUVECs under high glucose; assay type: cell-based, human; settings: high glucose conditions (FIG. 6D)
# Protocol: HUVECs were inoculated into a 6-well plate and treated with different concentrations of glucose. After 48 hours of culture, the cells were collected, washed twice with cold PBS, and suspended to 1×10^6 cells/mL with a labeling buffer (1×), and 5 μL of AnnexinV-FITC and 5 μL of propidium iodide (PI) were added. The cells were mixed evenly and incubated at room temperature away from light for about 15 minutes. 300 μL of labeling buffer was added to each tube, and samples were loaded within 1 hour. Annexin-V and PI were used to label early and late apoptotic cells, respectively. […] PI is a kind of nucleic acid dye, cannot penetrate the whole cell membrane, but can penetrate the cell membrane of cells in the middle and late apoptosis and dead cells to stain the nucleus.
# PECs = test: Apoptosis detection in cultured PECs under high glucose; assay type: cell-based; settings: high glucose conditions (FIG. 6E)
# IL-6 [3] = test: Western blot of IL-6 in high glucose-treated HUVECs; assay type: cell-based, human; settings: western blot (FIG. 7D, 7E)
# TNF-α [4] = test: Western blot of TNF-α in high glucose-treated HUVECs; assay type: cell-based, human; settings: western blot (FIG. 7D, 7F)
# MCP-1 [5] = test: Western blot of MCP-1 in high glucose-treated HUVECs; assay type: cell-based, human; settings: western blot (FIG. 7D, 7G)
# TNF-α [6] = test: ELISA of TNF-α in HUVEC culture supernatant; assay type: cell-based, human; settings: HUVECs treated with 10 μM, ELISA (FIG. 8B)
# Protocol: (§1) HUVECs were inoculated into a 6-well plate and treated with glucose of different concentrations. After 48 hours, the supernatant was collected, and the expression of inflammatory cytokines TNF-α, MCP-1. and IL-6 in the supernatant was detected using TNF-α, MCP-1 and IL-6 ELISA kits according to instructions of the kits, respectively.
# MCP-1 [7] = test: ELISA of MCP-1 in HUVEC culture supernatant; assay type: cell-based, human; settings: HUVECs treated with 10 μM, ELISA (FIG. 8C)
# Protocol: as §1
# IL-6 [8] = test: ELISA of IL-6 in HUVEC culture supernatant; assay type: cell-based, human; settings: HUVECs treated with 10 μM, ELISA (FIG. 8A)
# Protocol: as §1
# [9] = Body weight of diabetic AVF rats; assay type: in vivo, rat; settings: 1 mg/kg/day intraperitoneal, DM+Cyc vs DM group (FIG. 9)
# Protocol: (§2) Male SD rats which were aged 6-8 weeks and weighed 200-250 g were purchased from Beijing Vital River Laboratory Animal Technology Co., Ltd. In order to induce diabetes, the rats fasted overnight. Streptozotocin (STZ) (US, sigma, S0130-1G) (65 mg/kg) was dissolved in the citric acid buffer solution (0.1 M citric acid and 0.1 M sodium citrate) and single injected intraperitoneally into the abdominal cavity of the rats. The control group was administrated with an equal volume of the mediator-sodium citrate buffer (pH 4.5). Three days after the STZ injection, SD rats whose fasting-blood glucose (FPG) was greater than or equal to 300 mg/dL measured by Roche glucometer (Roche, Shanghai, China, LKBIO1500) were considered to have diabetes and used in follow-up experiments (FIG. 10).
# (§3) After the construction of the diabetic model. SD rats were used to construct the AVF model. Rats were anesthetized by intraperitoneal injection of chloral hydrate (0.3 mL/100 g) and placed on the operating table during the operation. […]
# (§4) Weight and blood glucose of rats were measured every week during the experiment, peripheral blood was extracted at specific time points (0, 1, and 14 weeks) for analysis, and AVF tissues were isolated at the end of the experiment for further analysis.
# [10] = Blood glucose level of diabetic AVF rats; assay type: in vivo, rat; settings: 1 mg/kg/day intraperitoneal, DM+Cyc vs DM group (FIG. 10)
# Protocol: as §2, §3, §4
# diabetic AVF rats [11] = test: Ultrasonic examination of AVF in diabetic AVF rats; assay type: in vivo, rat; settings: 1 mg/kg/day i.p.
# Protocol: as §2
# After the construction of the diabetic model. SD rats were used to construct the AVF model. Rats were anesthetized by intraperitoneal injection of chloral hydrate (0.3 mL/100 g) and placed on the operating table during the operation. The iliac vascular area was exposed by cutting a 3 cm incision along the left inguinal fold and retracting abdominal muscle tissue and other soft tissue. The operation was carried out under a microscope, and the iliac artery and vein were separated from the surrounding fascia and nerves.
# diabetic AVF rats [12] = test: Hematoxylin-eosin staining of vascular tissue at AVF anastomosis; assay type: in vivo, rat; settings: HE staining at AVF anastomosis, 1 mg/kg/day i.p., vs DM group (FIG. 12)
# Protocol: (§5) The paraffin-embedded tissue sections were stained with HE. Blood vessel tissue samples were dewaxed and rehydrated, and antigen retrieval and IHC staining were carried out. Tissue sections were blocked at room temperature for at least 1 hour and incubated overnight with antibodies of TNF-α, MCP1, IL-6, and SMO at 4° C. After careful cleaning, tissue sections were detected using a DAB-HRP method and observed with a microscope. Quantitative analysis was carried out according to the percentage of […] cells and the staining intensity.
# as §2
# After the construction of the diabetic model. […]
# SMO [13] = test: Immunohistochemistry of SMO in vascular tissue around the fistula; assay type: in vivo, rat; settings: 1 mg/kg/day i.p., vs DM group (FIG. 13)
# Protocol: as §5
# TNF-α [14] = test: Immunohistochemistry of TNF-α in vascular tissue around the fistula; assay type: in vivo, rat; settings: 1 mg/kg/day i.p., vs DM group (FIG. 13)
# Protocol: as §5
# MCP-1 [15] = test: Immunohistochemistry of MCP-1 in vascular tissue around the fistula; assay type: in vivo, rat; settings: 1 mg/kg/day i.p., vs DM group (FIG. 13)
# Protocol: as §5
# IL-6 [16] = test: Immunohistochemistry of IL-6 in vascular tissue around the fistula; assay type: in vivo, rat; settings: 1 mg/kg/day i.p., vs DM group (FIG. 13)
# Protocol: as §5
# Cleaved caspase 3 = test: Immunohistochemistry of Cleaved caspase 3 in vascular tissue around the fistula; assay type: in vivo, rat; settings: 1 mg/kg/day i.p., vs DM group (FIG. 13)
# TNF-α [17] = test: ELISA of TNF-α in peripheral blood plasma of rats; assay type: in vivo, rat; settings: 1 mg/kg/day i.p., vs DM group (FIG. 14A)
# Protocol: (§6) Peripheral blood samples of rats were collected, and plasma was separated. The concentration of cytokines (TNF-α, MCP-1, and IL-6) in plasma was determined using an ELISA kit (Jiangsu Enzyme Immune Industrial Co., Ltd., China).
# as §4
# MCP-1 [18] = test: ELISA of MCP-1 in peripheral blood plasma of rats; assay type: in vivo, rat; settings: 1 mg/kg/day i.p., vs DM group (FIG. 14B)
# Protocol: as §6, §4
# IL-6 [19] = test: ELISA of IL-6 in peripheral blood plasma of rats; assay type: in vivo, rat; settings: 1 mg/kg/day i.p., vs DM group (FIG. 14C)
# Protocol: as §6, §4
# SMO [20] = test: Western blot of SMO in vascular endothelial cells from rat AVF tissue; assay type: in vivo; settings: vascular endothelial cells isolated from rat AVF tissue, 1 mg/kg/day i.p. (FIG. 14D, 14H)
# Protocol: (§7) After the experiment was finished, the AVF tissues of the rats were collected and digested with enzymes to separate vascular endothelial cells. The vascular endothelial cells were lysed with the mixture liquid of RIPA lysis buffer and the phosphatase inhibitor and centrifuged to collect the supernatant. The protein concentration was measured, and the protein samples were prepared. Electrophoresis was carried out, and the membrane was transferred at 260 mA for 60 minutes. The transferred PVDF membranes were soaked with TBST buffer containing 5% skimmed milk powder, blocked at room temperature at a rotation rate of 60 rpm for 1 hour, and gently washed with TBST buffer 3 times, each time lasting 8-10 minutes. The corresponding diluents of primary antibodies (SMO, Cascpase3, TNF-α, MCP-1, and IL-6) were added, where the dilution ratio was determined according to the requirements of each antibody, and the PVDF membranes were incubated overnight in a shaker at 4° C. and cleaned with TBST buffer 3 times the next day, each time lasting 8-10 minutes. […] Development: Luminescent liquid A and liquid B were mixed according to the ratio of 1:1, the residual water on the PVDF membranes was gently absorbed with filter papers, the mixed luminescent liquid was uniformly dropped on the PVDF membranes, and the western blot results were analyzed on a gel imager.
# TNF-α [21] = test: Western blot of TNF-α in vascular endothelial cells from rat AVF tissue; assay type: in vivo; settings: vascular endothelial cells isolated from rat AVF tissue, 1 mg/kg/day i.p. (FIG. 14D, 14F)
# Protocol: as §7
# MCP-1 [22] = test: Western blot of MCP-1 in vascular endothelial cells from rat AVF tissue; assay type: in vivo; settings: vascular endothelial cells isolated from rat AVF tissue, 1 mg/kg/day i.p. (FIG. 14D, 14G)
# Protocol: as §7
# IL-6 [23] = test: Western blot of IL-6 in vascular endothelial cells from rat AVF tissue; assay type: in vivo; settings: vascular endothelial cells isolated from rat AVF tissue, 1 mg/kg/day i.p. (FIG. 14D, 14E)
# Protocol: as §7
# SMO [24] = settings: HUVECs, high glucose; 10 μM; compared with Vis and Gla at the same dosage (FIG. 5A)
# Protocol: (§8) The total RNA was extracted from HUVECs by the Trizol method. The cDNA was synthesized using Evo M-MLV RT Premix premix for qPCR. Fluorescence quantitative PCR was carried out using gene-specific primers (Table 1) and SYBR® Green Premix Pro Taq HS qPCR Kit. The relative mRNA expression quantity was calculated by 2^−ΔΔCT method.
# IL-6 [25] = settings: HUVECs
# Protocol: as §8
# TNF-α [26] = settings: HUVECs
# Protocol: as §8
# MCP-1 [27] = settings: HUVECs
# Protocol: as §8
smiles,measurement,setting,value
"CC1=C2C[C@H]3[C@@H](CC=C4C[C@@H](O)CC[C@@]43C)[C@@H]2CC[C@]12O[C@@H]1C[C@H](C)CN[C@H]1[C@H]2C [Cyc, Cyclopamine]",LDH in HUVECs,HUVECs [1],reduced
same,apoptosis of HUVECs,HUVECs [2],significantly reduced
same,apoptosis of cultured PECs,PECs,significantly reduced
same,expression of IL-6 at protein level,IL-6 [3],inhibit
same,expression of TNF-α at protein level,TNF-α [4],inhibit
same,expression of MCP-1 at protein level,MCP-1 [5],inhibit
same,level of TNF-α in cell culture supernatant,TNF-α [6],decreased
same,level of MCP-1 in cell culture supernatant,MCP-1 [7],decreased
same,level of IL-6 in cell culture supernatant,IL-6 [8],decreased
same,body weight,[9],remained stable over time
same,blood glucose level,[10],lower than that of the DM group
same,blood flow,"diabetic AVF rats [11]; color Doppler ultrasound near AVF anastomotic stoma, DM+Cyc vs untreated DM group (FIG. 11A)",faster
same,diameter of blood vessels in the fistula,"diabetic AVF rats [11]; ultrasound at AVF anastomosis, DM+Cyc vs untreated group (FIG. 11B)",increased significantly
same,intima of blood vessels,diabetic AVF rats [12],improved
same,lumen of blood vessels,diabetic AVF rats [12],significantly enlarged
same,expression level of SMO (immunohistochemistry),SMO [13],significantly inhibited
same,expression level of TNF-α (immunohistochemistry),TNF-α [14],significantly inhibited
same,expression level of MCP-1 (immunohistochemistry),MCP-1 [15],significantly inhibited
same,expression level of IL-6 (immunohistochemistry),IL-6 [16],significantly inhibited
same,expression level of Cleaved caspase 3 (immunohistochemistry),Cleaved caspase 3,significantly inhibited
same,TNF-α in plasma,TNF-α [17],significantly reduced
same,MCP-1 in plasma,MCP-1 [18],significantly reduced
same,IL-6 in plasma,IL-6 [19],significantly reduced
same,expression level of SMO (western blot),SMO [20],significantly reduced
same,expression level of TNF-α (western blot),TNF-α [21],significantly reduced
same,expression level of MCP-1 (western blot),MCP-1 [22],significantly reduced
same,expression level of IL-6 (western blot),IL-6 [23],significantly reduced
same,inhibiting the expression of SMO,SMO [24],best effect
same,expression of IL-6 at mRNA level,IL-6 [25]; glucose 5.5-40 mM (FIG. 7A),inhibit
same,inhibiting the expression of IL-6,"IL-6 [25]; high glucose, 10 μM, compared with Vis and Gla at the same dosage (FIG. 5C)",best effect
same,expression of TNF-α at mRNA level,TNF-α [26]; glucose 5.5-40 mM (FIG. 7B),inhibit
same,inhibiting the expression of TNF-α,"TNF-α [26]; high glucose, 10 μM, compared with Vis and Gla at the same dosage (FIG. 5D)",best effect
same,expression of MCP-1 at mRNA level,MCP-1 [27]; glucose 5.5-40 mM (FIG. 7C),inhibit
same,inhibiting the expression of MCP-1,"MCP-1 [27]; high glucose, 10 μM, compared with Vis and Gla at the same dosage (FIG. 5E)",best effect
